According to PMC3229523, “Identification of Lactoferricin B Intracellular Targets Using an Escherichia coli Proteome Chip” (PLoS ONE, 2011):
Ends that are not written are not given here. * marks the point of attachment. Biotin = O=C1N[C@H]2[C@H](CS[C@H]2CCCCC(=O)*)N1

Key:
E. coli = conditions: cited from earlier work
Method: Natural antimicrobial peptides are pervasive in plants, insects and animals. […] It is possible that LfcinB served as nutrient for bacteria in the beginning of the assay. […] In the middle part (2–4 h) of the growth curves, the ...

[1] = test system: Bovine Serum Albumin, BSA; experiment: Fluorescence polarization assay, BSA negative control; assay type: binding; conditions: BSA 0.4, 0.2, 0.1, 0.05 µM (negative control); 100 nM labeled LfcinB
Excerpt: (§1) FP assays, investigations of the binding between two molecules in a homogeneous aqueous environment, were used to validate the identified 153 proteins. […] If a fluorophore only binds to a small molecule, such as peptide, the rotation of the complex is fast and the light emits in a different plane of polarization. Therefore, the degree of polarization is low. However, once a fluorophore binds to a large molecule, the bound complex is stimulated with polarized light. The light emits in the same polarized plane, and the complex is maintained in the same plane of polarization, causing an increase in the degree of polarization [22]–[24]. The amount of molecules binding to a fluorophore influences the degree of polarization. In this study, LfcinB was labeled with DyLight™ 549 as a reference value. Once the protein bound to LfcinB, like a fluorophore binds to a large molecule, a high degree of polarization is expected.
(§2) Before the assays, LfcinB was labeled with DyLight™ 549 and tested proteins were quantified with a Pierce® bicinchoninic acid (BCA™) protein assay (Thermo). To label the LfcinB, DyLight™ 549-NHS ester and LfcinB (68∶1, mole/mole) were mixed in PBS at room temperature for 1 h, a D-Salt™ polyacrylamide desalting column (Thermo) was used to remove excess dye and the labeling efficiency of the eluted solution was calculated. […]

YdaU = experiment: Fluorescence polarization assay, YdaU; assay type: binding, E. coli; conditions: 100 nM DyLight 549-labeled LfcinB; protein 0.025-0.4 µM; data not shown
Excerpt: as §1, §2

NrdD = experiment: Fluorescence polarization assay, NrdD; assay type: binding, E. coli; conditions: 100 nM DyLight 549-labeled LfcinB; protein 0.025-0.4 µM; data not shown
Excerpt: as §1, §2

YqiA = experiment: Fluorescence polarization assay, YqiA; assay type: binding, E. coli; conditions: 100 nM DyLight 549-labeled LfcinB; protein 0.025-0.4 µM; data not shown
Excerpt: as §1, §2

MalP = experiment: Fluorescence polarization assay, MalP; assay type: binding, E. coli; conditions: 100 nM DyLight 549-labeled LfcinB; protein 0.025-0.4 µM; data not shown
Excerpt: as §1, §2

YnhE = experiment: Fluorescence polarization assay, YnhE; assay type: binding, E. coli; conditions: 100 nM DyLight 549-labeled LfcinB; protein 0.025-0.4 µM; data not shown
Excerpt: as §1, §2

Ppc = experiment: Fluorescence polarization assay, Ppc; assay type: binding, E. coli; conditions: 100 nM DyLight 549-labeled LfcinB; protein 0.025-0.4 µM; data not shown
Excerpt: as §1, §2

YcaO = experiment: Fluorescence polarization assay, YcaO; assay type: binding, E. coli; conditions: 100 nM DyLight 549-labeled LfcinB; protein 0.025-0.4 µM; data not shown
Excerpt: as §1, §2

[2] = test system: E. coli K-12 BW25113 (isogenic parent) strain; experiment: Knockout assay, isogenic parent strain; assay type: cell-based; conditions: 32 µM LfcinB, LB medium, 37°C, approx. 10^7 CFU/ml
Method: The E. coli K-12 BW25113 (isogenic parent) strain and the 16 knockout strains were obtained from the E. coli Genetic Resources at the Coli Genetic Stock Center (CGSC) at Yale University. The strains were inoculated into LB medium, and incubated at 37°C with shaking. After 16 h of incubation, the cultures were diluted to approximately 10^7 CFU/ml with LB medium. Thirty-two µM of LfcinB were then added to the cultures in a 96-well plate. PBS was used as a negative control. Cultures with LfcinB or PBS were then incubated at 37°C with shaking in a microplate reader and the growth was observed by measuring the OD595 value every 20 min for 7 h 20 min.

Lactoferricin B (Biotin-FKCRRWQWRMKKLGAPSITCVRRAF; ends and bridges not checked) [LfcinB]
DNA synthesis at initiation of LfcinB into the medium (E. coli): DNA synthesis was increased
DNA, RNA and protein synthesis of E. coli (E. coli; sublethal concentration): inhibited DNA, RNA and protein synthesis of E. coli
filamentation during an SOS-response (E. coli; sublethal concentration): induced filamentation during an SOS-response
concentration dependence of polarization [1]: remained constant with increasing concentrations of BSA
binding to YdaU (YdaU): confirmed to bind to LfcinB
binding to NrdD (NrdD): confirmed to bind to LfcinB
binding to YqiA (YqiA): confirmed to bind to LfcinB
binding to MalP (MalP): confirmed to bind to LfcinB
binding to YnhE (YnhE): confirmed to bind to LfcinB
binding to Ppc (Ppc): confirmed to bind to LfcinB
binding to YcaO (YcaO): confirmed to bind to LfcinB
growth with LfcinB [2]: inhibited the growth of the isogenic parent strain
